Source: US20060193895A1, “Additive for food and beverage, pharmaceutical composition, GLUT4 translocator, and method for translocating GLUT4” (Use-Techno Corporation, priority 2005, published 2006)

Columns and labels:
Type in all cases: in vivo
[1] = tested on: KK-Ay mice; assay: Serum insulin value in KK-Ay mouse with administration of corosolic acid; settings: after 4 hours from the administration, vs group without corosolic acid
Protocol: On the KK-Ay mouse groups with or without corosolic acid administrated in “Blood sugar level in KK-Ay mouse by administration of corosolic acid” described above, the serum insulin values were measured after 4 hours from the administration. The serum insulin values were measured by the enzyme 2-antibody method. The measured data were rated by the Student's t-test to determine whether or not they had significant differences according to the same criterion as above.

[2] = tested on: ddY mice; assay: Blood sugar level of ddY mouse by administration of corosolic acid; settings: ddY normal mice, oral administration, 2, 4, and 7 hours after the administration
Protocol: KK-Ay mice (CLEA JAPAN, INC.) which are the model animals for Type II diabetes were employed for test animals. These KK-Ay mice aged 6 to 10 weeks, having 300 mg/dL of blood sugar level. Corosolic acid which was extracted from Banaba leaves and purified was forcefully administrated to these KK-Ay mice using an injection syringe and an oral sound for mouse. Blood samples were collected at 2, 4 and 7 hours after the administration using the orbital vein blood sampling method, and the blood sugar levels were determined by the glucose oxidase method. Blood sugar levels were measured on four KK-Ay mice. The measured values were used to calculate an average, which was evaluated by the Student's t-test. […] FIG. 1 describes the blood sugar level data as average value± standard error. The p-value of 0.05 or below in the Student's t-test was rated to be significant (the significance is shown with * mark in the Figure: the same is applied hereinafter). Blood sugar level was determined by the same procedure as described in the above “Blood sugar level in KK-Ay mouse by administration of corosolic acid”, except that the ddY mice which are the normal mice (Japan SLC, Inc.) were employed instead of the KK-Ay mice which are the model animals for Type II diabetes.

[3] = tested on: KK-Ay mice; assay: Blood sugar level in KK-Ay mouse with administration of corosolic acid; settings: oral administration
Protocol: KK-Ay mice (CLEA JAPAN, INC.) which are the model animals for Type II diabetes were employed for test animals. These KK-Ay mice aged 6 to 10 weeks, having 300 mg/dL of blood sugar level. Corosolic acid which was extracted from Banaba leaves and purified was forcefully administrated to these KK-Ay mice using an injection syringe and an oral sound for mouse. Blood samples were collected at 2, 4 and 7 hours after the administration using the orbital vein blood sampling method, and the blood sugar levels were determined by the glucose oxidase method. Blood sugar levels were measured on four KK-Ay mice. The measured values were used to calculate an average, which was evaluated by the Student's t-test. […] FIG. 1 describes the blood sugar level data as average value± standard error. The p-value of 0.05 or below in the Student's t-test was rated to be significant (the significance is shown with * mark in the Figure: the same is applied hereinafter).

[4] = tested on: glucose transporter type 4 (GLUT4); assay: Effect of corosolic acid on GLUT4 in mouse skeletal muscle (western blotting of PM and LDM fractions); settings: KK-Ay mice, after 4 hours from the administration
Protocol: The intake of sugar into cells is conducted by a carrier protein in the transporting system on cell membrane, called glucose transporter (GLUT). Muscle has glucose transporter type 1 (GLUT1) and glucose transporter type 4 (GLUT4). […] This change in location within a cell is called GLUT4 translocation. It is speculated that significant increase of glucose in muscle and fat tissues is mainly due to the translocation of GLUT4. In view of this point, the effect of corosolic acid on GLUT4 was studied. First, the low density microsome (LDM) fraction and the plasma membrane (PM) fraction were prepared using the sucrose concentration gradient in accordance with the method of Klip et al. (FEBS Lett., 224, 224-230 (1987), Biochem. Biophys. Res. Commum., 172, 728-736 (1990)). On the KK-Ay mouse groups with or without corosolic acid administrated, the relative quantities of GLUT4 in the PM fraction and the LDM fraction were determined after 4 hours from the administration using the western blotting analysis.

**Q.** Which results are given for `C[C@H]1[C@H](C)CC[C@]2(C(=O)O)CC[C@]3(C)C(=CC[C@@H]4[C@@]5(C)C[C@@H](O)[C@H](O)C(C)(C)[C@@H]5CC[C@]43C)[C@H]12` [corosolic acid]?
**A.** serum insulin value [1]: no significant difference; change in blood sugar level [2]: No significant difference; blood sugar level ([3]; after 4 hours from the administration): about 280 mg/dL; change in blood sugar level ([3]; during 4 hours after the administration, vs control, Student's t-test): significantly decreases; relative quantity of GLUT4 in the LDM fraction [4]: decreased the GLUT4 of low density microsome; relative quantity of GLUT4 in the PM fraction [4]: increased it in the plasma membrane fraction
